US20220133842A1 (priority 2019, published 2022)
Converted amounts (≈) assume the structure as drawn. Like-named read-outs stand apart in the source and are kept apart here.

How the values were obtained:
[1] = system: Clostridium perfringens (ATCC 13124); format: cell-based
[2] = system: Listeria monocytogenes (DSM 20600); format: cell-based
[3] = system: Citrobacter farmeri (ATCC 51633); format: cell-based
[4] = system: Fusarium graminearum (DSM 1095); format: cell-based
[5] = system: Staphylococcus aureus MRSA USA300 (ATCC BAA-1717); format: cell-based
[6] = system: Micrococcus luteus (DSM 20030); format: cell-based
[7] = system: Klebsiella pneumoniae (DSMZ 26371); format: cell-based
[8] = system: Lactococcus lactis (DSM 20481); format: cell-based
[9] = system: Penicillium verrucosum (DSM 12639); format: cell-based
[10] = system: Escherichia coli (ATCC 8739); format: cell-based
[11] = system: Citrobacter rodentium (ATCC 51116); format: cell-based
[12] = system: Clostridium propionicum (DSM 6251); experiment: microbe, parasite or virus in culture; format: cell-based
[13] = system: Arthrobacter gandavensis (DSM 2447); format: cell-based
[14] = system: Propionibacterium acnes (ATCC 6919); experiment: microbe, parasite or virus in culture; format: cell-based
[15] = system: Clostridium botulinum (DSM 1985); experiment: microbe, parasite or virus in culture; format: cell-based
[16] = system: Acinetobacter baumannii (CIP 110431); format: cell-based
[17] = system: Streptococcus thermophilus (ATCC LMD-9); experiment: microbe, parasite or virus in culture; format: cell-based
[18] = system: Pseudomonas aeruginosa (CIP 107398); format: cell-based
[19] = system: Staphylococcus aureus (ATCC 6538P); format: cell-based
[20] = system: Lactobacillus acidophilus (DSM 20079); experiment: microbe, parasite or virus in culture; format: cell-based
[21] = system: Clostridium difficile (DSM 1296); experiment: microbe, parasite or virus in culture; format: cell-based
[22] = system: Bacillus subtilis (DSM 347); format: cell-based
Bacillus cereus (DSM 31) = format: cell-based
[23] = system: Fusarium verticillioides (DSM 62264); format: cell-based
[24] = system: Clostridium coccoides (DSM 935); experiment: microbe, parasite or virus in culture; format: cell-based
[25] = system: Streptococcus pyogenes (DSM 20565); experiment: microbe, parasite or virus in culture; format: cell-based
[26] = system: Salmonella enterica (CIP 80.39); format: cell-based
[27] = system: Aspergillus niger (ATCC 9142); format: cell-based
[28] = system: Clostridium nexile (DSM 1787); experiment: microbe, parasite or virus in culture; format: cell-based
[29] = system: Mycobacterium smegmatis (ATCC 700084); format: cell-based
[30] = system: Enterococcus faecalis (DSM 13591); experiment: microbe, parasite or virus in culture; format: cell-based
[31] = system: Klebsiella variicola (DSM 15968); format: cell-based
[32] = system: Clostridium perfringens (ATCC 13124)
[33] = system: Aspergillus flavus (DSM 1959); format: cell-based
[34] = system: Candida albicans (DSM 10697); format: cell-based
[35] = system: Bacteroides thetaioataomicron (DSM 2255); experiment: microbe, parasite or virus in culture; format: cell-based
[36] = system: Aspergillus ochraceus (DSM 824); format: cell-based
[37] = system: Fusarium oxysporum (DSM 62316); format: cell-based
[38] = system: Shigella flexneri (ATCC 12022); format: cell-based
[39] = system: Helicobacter pylori (ATCC 43504); experiment: microbe, parasite or virus in culture; format: cell-based
IPEC-J2 cells [40] = experiment: cells; format: cell-based, pig; settings: read-out: IC50 (concentration causing 50% cell death)
[41] = system: human (Caco-2 and T84) and pig (IPEC-J2) intestinal cells
T84 cells (ATCC CCL-248) = experiment: cells; format: cell-based, human; settings: read-out: IC50 (concentration causing 50% cell death)
[42] = system: Caco-2 cells (ATCC HTB-37); experiment: cells; format: cell-based, human; settings: read-out: IC50 (concentration causing 50% cell death)
[43] = system: Clostridium perfringens (ATCC 13124); format: cell-based; remark: listed apart in the source
[44] = system: Clostridium perfringens (ATCC13124); format: cell-based
[45] = system: Clostridium perfringens strain (ATCC 13124) and clinical strains of Clostridium perfringens; format: cell-based
T84 cells = settings: human
Caco-2 cells = settings: human
[46] = system: human or porcine intestinal cells grown on inserts; settings: human, pig
IPEC-J2 cells [47] = settings: pig

O=C(N[C@H](CO)[C@H](O)c1ccc([N+](=O)[O-])cc1)C(Cl)Cl [Chloramphenicol]
morphological phenotype (mechanism of action) ([1]; 5 times MIC, 2 hours, FM4-64FX and DAPI labelling): hypercondensation of bacterial DNA

Bafilomycin B1
MIC [2]: 50 µM | MIC [3]: >100 µM | MIC [4]: 25 µM | MIC [5]: 20 µM | MIC [6]: 25 µM | MIC [7]: >100 µM | MIC [8]: 50 µM | MIC [9]: 6.25 µM | MIC [10]: >100 µM | MIC [11]: >100 µM | MIC [12]: 25 µM | MIC [13]: 3 µM | MIC [14]: 60 µM | MIC [15]: 30 µM | MIC [16]: >100 µM | MIC [17]: 30 µM | MIC [18]: >100 µM | MIC [19]: 10 µM | MIC [20]: 10 µM | MIC [21]: >100 µM | MIC [22]: 20 µM | MIC (Bacillus cereus (DSM 31)): 25 µM | MIC [23]: 50 µM | MIC [24]: 30 µM | MIC [25]: 20 µM | MIC [26]: >100 µM | MIC [27]: 100 µM | MIC [28]: 60 µM | MIC [29]: >100 µM | MIC [30]: 40 µM | MIC [31]: >100 µM | MIC [32]: 10 µM | MIC (mg/L) [32]: 8.15 mg/L | MIC [33]: 3.25 µM | MIC [34]: 100 µM | MIC [35]: >100 µM | MIC [36]: 6.25 µM | MIC [37]: 50 µM | MIC [38]: >100 µM | MIC [39]: >100 µM

Enniatin A1
IC50 (IPEC-J2 cells [40]): 5.1 µM | toxicity to intestinal cells [41]: toxic | MIC [10]: >100 µM | MIC [18]: >100 µM | MIC [19]: 25 µM | MIC [22]: 25 µM | IC50 (T84 cells (ATCC CCL-248)): 4.5 µM | IC50 [42]: 3.1 µM | MIC [30]: 6.25 µM | MIC [32]: 6.25 µM | MIC (mg/L) [32]: 4.16 mg/L | MIC [34]: 3.125 µM

Destruxin A
MIC [2]: >100 µM | IC50 (IPEC-J2 cells [40]): > 100 µM | MIC [3]: >100 µM | MIC [4]: >100 µM | permeabilisation of the bacterial membrane [43]: no permeabilisation | MIC [5]: >100 µM | MIC [6]: >100 µM | MIC [7]: >100 µM | toxicity to intestinal cells [41]: not toxic | MIC [8]: >100 µM | MIC [9]: >100 µM | MIC [10]: >100 µM | MIC [11]: >100 µM | MIC [12]: >100 µM | MIC [13]: >100 µM | MIC [14]: >100 µM | MIC [15]: >100 µM | MIC [16]: >100 µM | MIC [17]: >100 µM | MIC [18]: >100 µM | MIC [19]: >100 µM | change of MIC during exposure [44]: do not change or change only slightly | MIC [20]: >100 µM | MIC [21]: >100 µM | MIC [22]: >100 µM | MIC (Bacillus cereus (DSM 31)): >100 µM | MIC [23]: >100 µM | MIC [24]: >100 µM | MIC [25]: >100 µM | MIC [26]: >100 µM | IC50 (T84 cells (ATCC CCL-248)): > 100 µM | MIC [27]: >100 µM | MIC [28]: >100 µM | IC50 [42]: > 100 µM | MIC [29]: >100 µM | MIC [30]: >100 µM | MIC [31]: >100 µM | morphological phenotype (mechanism of action) [1]: hypercondensation of bacterial DNA | MIC (mg/L) [32]: 0.86 mg/L | minimum bactericidal concentrations (BMC values) [45]: identical to the MIC values | MIC [33]: >100 µM | MIC [34]: >100 µM | MIC [35]: >100 µM | MIC [36]: >100 µM | MIC [37]: >100 µM | MIC [38]: >100 µM | MIC [39]: >100 µM

CCCCCCCCCC(=O)N[C@@H](Cc1c[nH]c2ccccc12)C(=O)N[C@H](CC(N)=O)C(=O)N[C@@H](CC(=O)O)C(=O)N[C@@H]1C(=O)NCC(=O)N[C@@H](CCCN)C(=O)N[C@@H](CC(=O)O)C(=O)N[C@H](C)C(=O)N[C@@H](CC(=O)O)C(=O)NCC(=O)N[C@H](CO)C(=O)N[C@@H]([C@H](C)CC(=O)O)C(=O)N[C@@H](CC(=O)c2ccccc2N)C(=O)O[C@@H]1C [Daptomycin]
MIC ([32]; ATCC 13124): 8 µM (≈ 13 µg/mL) | MIC (mg/L) ([32]; ATCC 13124): 12.96 mg/L (≈ 8 µM)

Cc1ncc([N+](=O)[O-])n1CCO [Metronidazole]
IC50 (IPEC-J2 cells [40]; Sus scrofa, IPEC-J2, 48 h): > 1500 µM | transepithelial electrical resistance (T84 cells): 293 +/− 12.3 ohm.cm2 | toxicity to intestinal cells [41]: not toxic | transepithelial electrical resistance (Caco-2 cells): 252 +/− 13.7 ohm.cm2 | MIC ([12]; Anaerotignum propionicum, DSM6251): 1.17 µM (≈ 0.2 µg/mL) | MIC ([14]; Cutibacterium acnes, ATCC6919): 1500 µM (≈ 257 µg/mL) | MIC ([15]; Clostridium botulinum, DSM1985): 0.29 µM (≈ 0.0496 µg/mL) | MIC ([17]; Streptococcus thermophilus): 1500 µM (≈ 257 µg/mL) | increase in MIC ([44]; after 7 days of contact): 10 fold | increase in MIC ([44]; after 9 days of contact): 50-100 fold | MIC ([20]; Lactobacillus acidophilus, DSM20079): > 1500 µM | MIC ([21]; Clostridioides difficile, DSM1296): 1.17 µM (≈ 0.2 µg/mL) | decrease in transepithelial electrical resistance [46]: 0-34% | MIC ([24]; Blautia producta, DSM935): 0.29 µM (≈ 0.0496 µg/mL) | MIC ([25]; Streptococcus pyogenes, DSM20565): > 1500 µM | IC50 (T84 cells (ATCC CCL-248); Homo sapiens, T84, 48 h): > 1500 µM | MIC ([28]; Faecalimonas nexilis, DSM1787): 2.34 µM (≈ 0.401 µg/mL) | IC50 ([42]; Homo sapiens, Caco-2, 48 h): > 1500 µM | MIC ([30]; Enterococcus faecalis, DSM13591): > 1500 µM | MIC (mg/L) ([32]; Clostridium perfringens, ATCC13124): 1.60 mg/L (≈ 9.35 µM) | transepithelial electrical resistance (IPEC-J2 cells [47]): 875 +/− 203 ohm.cm2 | MIC ([35]; Bacteroides, DSM2255): 2.34 µM (≈ 0.401 µg/mL) | MIC ([39]; Helicobacter pylori, ATCC 21031 / ATCC 43504): > 1500 µM
